Experimental data reported in US12435060B2, “Acylamino bridged heterocyclic compound, and composition and application thereof” (BEIJING SCITECH-MQ PHARMACEUTICALS LIMITED, priority 2019, dated 2025).
pIC50: −log10 of the molar value.

system: HT29 cells; assay: Inhibition of cell necrosis (CCK8 method), induced programmed necrosis of HT29 cells; format: cell-based; conditions: Homo sapiens, HT-29; rescue from necrosis induced by TNF-α 20 ng/mL, AT-406 1 μM, Z-VAD-FMK 20 μM; 16-20 hours; CCK-8, OD 450 nm
Protocol: Assay Example 2. Assay Method for Compounds Inhibiting Cell Necrosis (CCK8 Method)
In this assay example 2, under the condition of inducing programmed cell necrosis, different concentrations of the test compounds were added to test the IC50 of the rescue effect of the test compounds on the programmed necrosis.
• Compounds: Dissolved in DMSO to make a 10 mM solution; • TNF-α: The initial concentration was 100 μg/mL; • Z-VAD-FMK: Dissolved in DMSO to make a 10 mM solution; • AT-406: Dissolved in DMSO to make a 10 mM solution. I. Experimental Steps • 1) Compound dilution: All test compounds were dissolved in DMSO to prepare a 10 mM stock solution, and the first concentration gradient dilution of the test compounds was completed in DMSO. The gradient dilution factor was 4 times and 9 concentration gradients were made; A 40-fold overall dilution of all compounds was completed in the cell culture medium, and the resulting compound was 10× compound, which will be added to the wells of the 96-well plate containing cells, so that the final cell culture medium was 1× the designed final concentration. The general drug design is 9 concentration gradients, of which the highest final concentration is 25000 nM, the lowest concentration after 4-fold dilution of 9 concentrations is 0.38 nM, and the final concentration of DMSO in all wells is 0.25%. The compound dilution process is shown in FIG. 3. • 2) HT 29 cells in good growth condition were selected, trypsinized, the cells was collected by centrifugation, resuspended in McCOY's 5A complete medium (containing 10% FBS) and counted, and the number of cells and survival rate were recorded. • 3) Cells were inoculated to the 60 wells in the middle of the 96-well culture plate at a density of 12000 cells/80 μL/well, surrounding wells were filled with sterile water, and incubated overnight. • 4) 10 μL of the 10× compound diluted with the medium was added to the assay wells, 10 μL of McCOY's 5A complete medium containing 2.5% DMSO was added to the inducer-free wells and the control wells, mixed and shaked, and incubated for 30 minutes. • 5) Then 10 μL of inducer mixture (TNF-α, AT-406, Z-VAD-FMK with the final concentration of 20 ng/mL, 1 μM, 20 μM) was added into the assay wells and control wells. 10 μL McCOY's 5A complete medium was added to wells without inducer. Cells were cultured in an incubator with 5% CO2, at 37° C. • 6) After culturing for 16-20 hours, 10 μL of CCK-8 reagent was added to each well, and incubated for about 2 hours; • 7) The OD value was read at 450 nm on the multi-function plate reader. • 8) Data processing: Inhibition rate of necrosis (%)=100*(X−B)/(A−B) • A: The OD values of the wells without inducer (containing cells, CCK-8, without compound and inducer); • […]: OD values of assay wells (containing cells, CCK-8, compound, inducer); • B: OD values of control wells (containing cells, CCK-8, inducer, without compound). Then the value were imported into Graphpad Prism5 software for curve fitting and the IC50 values were calculated.

SMILES | pIC50
Cc1ccc(OCCCC(C)(C)O)cc1-c1ccnc(NC(=O)c2nnc(Cc3cccc(F)c3F)[nH]2)c1 [Example 202, 5-(2,3-difluorobenzyl)-N-(4-(5-((4-hydroxy-4-methylpentyl)oxy)-2-methylphenyl)pyridin-2-yl)-4H-1,2,4-triazole-3-carboxamide] | ≥ 7.00
Cc1ccc(OCC(C)(C)O)cc1-c1ccnc(NC(=O)c2nnc(CC3CCCC3)[nH]2)c1 [Example 118, 5-(cyclopentylmethyl)-N-(4-(5-(2-hydroxyl-2-methylpropoxy)-2-methylphenyl)pyridin-2-yl)-4H-1,2,4-triazole-3-carboxamide] | ≥ 7.00
O=C(Nc1cc(-c2cc(OCCCCCO)ccc2Cl)ccn1)c1nnc(Cc2ccccc2F)[nH]1 [Example 376, 5-(2-fluorobenzyl)-N-(4-(2-chloro-5-((5-hydroxypentyl)oxy)phenyl)pyridin-2-yl)-4H-1,2,4-triazole-3-carboxamide] | ≥ 7.00
Cc1ccc(OCCCC(C)(C)O)cc1-c1ccnc(NC(=O)c2nnc(Cc3cc(Cl)ccc3F)[nH]2)c1 [Example 204, 5-(5-chloro-2-fluorobenzyl)-N-(4-(5-((4-hydroxy-4-methylpentyl)oxy)-2-methylphenyl)pyridin-2-yl)-4H-1,2,4-triazole-3-carboxamide] | ≥ 7.00
O=C(Nc1cc(-c2cc(OCCCCO)ccc2C(F)(F)F)ccn1)c1nnc(Cc2ccccc2)[nH]1 [Example 272, 5-benzyl-N-(4-(5-(4-hydroxybutoxy)-2-(trifluoromethyl)phenyl)pyridin-2-yl)-4H-1,2,4-triazole-3-carboxamide] | ≥ 7.00
Cc1ccc(C(=O)CC2CCOCC2)cc1-c1ccnc(NC(=O)c2nnc(CC3CCCC3)[nH]2)c1 [Example 486, 5-(cyclopentylmethyl)-N-(4-(2-methyl-5-(2-(tetrahydro-2H-pyran-4-yl)acetyl)phenyl)pyridin-2-yl)-4H-1,2,4-triazole-3-carboxamide] | ≥ 7.00
Cc1ccc(OCCCC(C)(C)O)cc1-c1ccnc(NC(=O)c2nnc(CC3CCC(F)(F)CC3)[nH]2)c1 [Example 178, 5-((4,4-difluorocyclohexyl)methyl)-N-(4-(5-((4-hydroxy-4-methylpentyl)oxy)-2-methylphenyl)pyridin-2-yl)-4H-1,2,4-triazole-3-carboxamide] | ≥ 7.00
CC(C)(O)CCCOc1ccc(Cl)c(-c2ccnc(NC(=O)c3nnc(Cc4cc(C(F)(F)F)ccc4F)[nH]3)c2)c1 [Example 347, N-(4-(2-chloro-5-((4-hydroxy-4-methylpentyl)oxy)phenyl)pyridin-2-yl)-5-(2-fluoro-5-(trifluoromethyl)benzyl)-4H-1,2,4-triazole-3-carboxamide] | 6.00 to 7.00
Cc1ccc(OCCC2CCOCC2)cc1-c1cc(NC(=O)c2nnc(Cc3ccccc3F)[nH]2)ncc1F [Example 498, N-(5-fluoro-4-(2-methyl-5-(2-(tetrahydro-2H-pyran-4-yl)ethoxy)phenyl)pyridin-2-yl)-5-(2-fluorobenzyl)-4H-1,2,4-triazole-3-carboxamide] | ≥ 7.00
Cc1ccc(OCCCC(C)(C)O)cc1-c1cc(NC(=O)c2nnc(Cc3ccccc3)[nH]2)ncn1 [Example 432, 5-benzyl-N-(6-(5-((4-hydroxy-4-methylpentyl)oxy)-2-methylphenyl)pyrimidin-4-yl)-4H-1,2,4-triazole-3-carboxamide] | ≥ 7.00
O=C(Nc1cc(-c2cc(OCCCCCO)ccc2C(F)(F)F)ccn1)c1nnc(Cc2ccccc2)[nH]1 [Example 275, 5-benzyl-N-(4-(5-((5-hydroxypentyl)oxy)-2-(trifluoromethyl)phenyl)pyridin-2-yl)-4H-1,2,4-triazole-3-carboxamide] | ≥ 7.00
COC(=O)CCc1ccc(C)c(-c2ccnc(NC(=O)c3nnc(CC4CCCC4)[nH]3)c2)c1 [Example 481, Methyl 3-(3-(2-(5-(cyclopentylmethyl)-4H-1,2,4-triazol-3-carboxamido)pyridin-4-yl)-4-methylphenyl)propionate] | 6.00 to 7.00
Cc1ccc(OCCOC(C)(C)C)cc1-c1ccnc(NC(=O)c2nnc(CC3CCCCC3)[nH]2)c1 [Example 77, N-(4-(5-(2-(tert-butoxy)ethoxy)-2-methylphenyl)pyridin-2-yl)-5-(cyclohexylmethyl)-4H-1,2,4-triazole-3-carboxamide] | ≥ 7.00
Cc1ccc(OCCCC2(O)CCCC2)cc1-c1ccnc(NC(=O)c2nnc(Cc3ccccc3)[nH]2)c1 [Example 163, 5-benzyl-N-(4-(5-(3-(1-hydroxycyclopentyl)propoxy)-2-methylphenyl)pyridin-2-yl)-4H-1,2,4-triazole-3-carboxamide] | ≥ 7.00
Cc1ccc(OCCC2CCOCC2)cc1-c1cc(NC(=O)c2nnc(CC3CCCC3)[nH]2)ncn1 [Example 447, 5-(cyclopentylmethyl)-N-(6-(2-methyl-5-(2-(tetrahydro-2H-pyran-4-yl)ethoxy)phenyl)pyrimidin-4-yl)-4H-1,2,4-triazole-3-carboxamide] | ≥ 7.00
Cc1ccc(OCCC(C)(C)C)cc1-c1ccnc(NC(=O)c2nnc(Cc3ccccc3)[nH]2)c1 [Example 115, 5-benzyl-N-(4-(5-(3,3-dimethylbutoxy)-2-methylphenyl)pyridin-2-yl)-4H-1,2,4-triazole-3-carboxamide] | 6.00 to 7.00
Cc1ccc(OCCCC(C)(C)O)cc1-c1ccnc(NC(=O)c2nnc(Cc3ccc(F)c(Cl)c3)[nH]2)c1 [Example 206, 5-(3-chloro-4-fluorobenzyl)-N-(4-(5-((4-hydroxy-4-methylpentyl)oxy)-2-methylphenyl)pyridin-2-yl)-4H-1,2,4-triazole-3-carboxamide] | 6.00 to 7.00
CC(C)(C)OCCOc1ccc(Cl)c(-c2ccnc(NC(=O)c3nnc(Cc4ccccc4F)[nH]3)c2)c1 [Example 392, 5-(2-fluorobenzyl)-N-(4-(5-(2-(tert-butoxy)ethoxy)-2-chlorophenyl)pyridin-2-yl)-4H-1,2,4-triazole-3-carboxamide] | ≥ 7.00
CC(C)n1nc(C(F)(F)F)cc1-c1ccnc(NC(=O)c2nnc(Cc3ccccc3)[nH]2)c1 [Example 32, 5-benzyl-N-(4-(1-isopropyl-3-(trifluoromethyl)-1H-pyrazol-5-yl)pyridin-2-yl)-4H-1,2,4-triazole-3-carboxamide] | < 5.00
Cc1ccc(OCCCC(C)(C)O)cc1-c1ccnc(NC(=O)c2nnc(CN3CCOCC3)[nH]2)c1 [Example 181, N-(4-(5-((4-hydroxy-4-methylpentyl)oxy)-2-methylphenyl)pyridin-2-yl)-5-(morpholinomethyl)-4H-1,2,4-triazole-3-carboxamide] | 5.00 to 6.00
O=C(Nc1cc(-c2cc(OCCCCO)ccc2Cl)ccn1)c1nnc(CC2CCCCC2)[nH]1 [Example 374, N-(4-(2-chloro-5-(4-hydroxybutoxy)phenyl)pyridin-2-yl)-5-(cyclohexylmethyl)-4H-1,2,4-triazole-3-carboxamide] | ≥ 7.00
Cc1ccc(OCC2CCCO2)cc1-c1ccnc(NC(=O)c2nnc(Cc3ccccc3)[nH]2)c1 (stereo not shown) [Example 121, 5-benzyl-N-(4-(2-methyl-5-((tetrahydrofuran-2-yl)methoxy)phenyl)pyridin-2-yl)-4H-1,2,4-triazole-3-carboxamide] | ≥ 7.00
CC(C)(O)CCCOc1ccc(Cl)c(-c2ccnc(NC(=O)c3nnc(CN4CCCC4)[nH]3)c2)c1 [Example 358, N-(4-(2-chloro-5-((4-hydroxy-4-methylpentyl)oxy)phenyl)pyridin-2-yl)-5-(pyrrolidin-1-ylmethyl)-4H-1,2,4-triazole-3-carboxamide] | < 5.00
Cc1ccc(OCCCC(C)(C)O)cc1-c1cc(NC(=O)c2nnc(CC3CCCCC3)[nH]2)ncc1C [Example 241, 5-(cyclohexylmethyl)-N-(4-(5-((4-hydroxy-4-methylpentyl)oxy)-2-methylphenyl)-5-methylpyridin-2-yl)-4H-1,2,4-triazole-3-carboxamide] | 6.00 to 7.00
CC(C)OCCOc1ccc(Cl)c(-c2ccnc(NC(=O)c3nnc(CC4CCCC4)[nH]3)c2)c1 [Example 389, N-(4-(2-chloro-5-(2-isopropoxyethoxy)phenyl)pyridin-2-yl)-5-(cyclopentylmethyl)-4H-1,2,4-triazole-3-carboxamide] | ≥ 7.00
